Data set [1] deals with ALDH1+CD44+ HNC cells. The data set can be described thus: HNC-TIC orthotopic xenograft, tumor size. In kind it is in vivo, nude mice. The note with it: intra-tumoral lesion injection; five weeks after treatment; vs pLV or shLuc. As to the method: (§1) We further explored the therapeutic potential of miR145 in immunocompromised mice bearing HNC-TIC xenografted tumors. Nude mice that were orthotopically pre-injected with GFP-labeled ALDH1^+CD44^+ cells in the neck region were treated with miR145-overexpressing lentivirus (pLV-miR-145) and shSOX9+shADAM17 by intra-tumoral lesion injection. […] By monitoring the treated mice for up to 12 weeks, we observed that administration of pLV-miR145 or shSOX9+shADAM17 prolonged animal survival to a greater extent than did the LNA-miR145 treatment (FIG. 10B).

Data set [2] has as its system HNC cells. Kind of data set: percentage of ALDH1+ and CD44+ HNC cells. In kind it is cell-based, human. The note with it: data not shown. The text has this: (§2) To identified the miRNA(s) involved in the regulation of TIC properties in HNC-TICs, we evaluated and compared the miRNA expression profiles in 3 pairs of HNC populations (ALDH1^+ vs. ALDH1^−, CD44^+ vs. CD44^−, and sphere-forming vs. parental) derived from patient specimens. […] To further investigate whether miR145 plays a role in the identity of HNC-TICs, two patient sample-derived HNC cell lines (HNC-1 and HNC-2) and an immortalized HNC cell line (FaDu) were subjected to quantitative RT-PCR analysis to confirm that miR145 levels were low in ALDH1^+/CD44^+ and sphere-forming HNC cells but high in ALDH1^−/CD44^− and parental cells (FIG. 8A, left and middle). To evaluate the role of miR145 on cancer initiation, we knocked down miR145 in ALDH1^−CD44^− cells derived from HNC-1, HNC-2, and FaDu cells using an miRNA SPONGE strategy (FIG. 8A, right), and subjected these cells to functional and molecular analysis. As shown in FIGS. 8B-D, the sphere formation ability and the percentage of ALDH1^+ and CD44^+ cells was all elevated upon miR145 knockdown (Spg-miR145) as compared to the control (Spg-ctrl) cells. […]

Data set [3] relates to ALDH1+CD44+ HNC cells. Kind of data set: tumor initiation of transfected ALDH1+CD44+ HNC cells. In kind it is in vivo. The note with it: ALDH1+CD44+ cells-transplanted grafts in NOD-SCID mice.
The test system of data set [4] is HNC cells. Kind of data set: sphere formation of HNC cells. It counts as cell-based, human. The note with it: ALDH1+CD44+ cells; data not shown.
Text: as §2

In data set [5] the test system is HNC cells. The data set can be described thus: invasion of HNC cells. It counts as cell-based, human. To be noted: ALDH1+CD44+ cells; data not shown.
Text: as §2

In data set [6] the test system is ALDH1+CD44+ HNC cells. The data set can be described thus: HNC-TIC orthotopic xenograft, survival. The note with it: monitored up to 12 weeks. It counts as in vivo, nude mice. As to the method: as §1

Regarding “shSOX9+shADAM17: lentiviral-based shRNAs for co-knockdown of SOX9 (SEQ ID NO: 28) and ADAM17 (SEQ ID NO: 29) (chain 1 GCGGAGGAAGTCGGTGAAGAA; chain 2 CCTATGTCGATGCTGAACAAA; the letters are possibly those of the target site)”, in data set [1], the tumor size result is on record as “dramatically reduced”. For the same substance, in data set [2], the “percentages of CD44+ and ALDH1+ cells” value was “reduced”. Moreover, in data set [3], the tumor-initiating property result was “effectively inhibited”. In addition, in data set [4], the sphere-forming ability entry is on record as “reduction”. For the same substance, the invasive capacity entry in data set [5] was “reduced”. Besides, in data set [6], the animal survival entry is “prolonged”.

The record behind these values is patent publication US8846633B2, “Method for inhibiting cancer stem cell like properties and chemoradioresistant properties of cancer or tumor cells with microRNA145” (Taipei Veterans General Hospital, priority 2011, dated 2014).
